Experimental data taken from patent US7977341B2, “Substituted isoxazoles as fungicides” (Syngenta Limited, priority 2004, dated 2011).
Read-outs that look alike come from different tables or passages of the source.

Columns and labels:
Septoria tritici = test: Fungicidal activity, microtiter plate format; format: cell-based
Stagonospora nodorum = test: Fungicidal activity, microtiter plate format; format: cell-based; details: for IC50: Parastagonospora nodorum, read-out: IC50 S. nodorum
Phytophthora infestans = test: microbe, parasite or virus in culture; format: cell-based; details: read-out: IC50 P. infestans
Botrytis cinerea = test: Fungicidal activity, microtiter plate format; format: cell-based
Sclerotinia homoeocarpa = test: Turf trial on creeping bentgrass (dollar spot)
Method: A fungicide trial was conducted on a 15-yr-old sward of creeping bentgrass v. Penncross during the spring. […] Treatments were arranged as plots (0.5×1.0 m) in a randomized complete block design with four replications. […] The turfgrass was inoculated with autoclaved tall fescue seed infested with Sclerotinia homoeocarpa (common name: dollar spot) six hours after application of the initial preventive treatments. The plots received approximately 0.24 inches of irrigation water daily at 1700 hour to ensure nightly foliar wetness for infection. The Horsfall-Barratt rating scale was used to visually estimate disease severity at approximately 7-day intervals from the initial application date. Turfgrass quality was assessed using a 0-9 scale where 0=a necrotic, thin foliar canopy and 9=a dark green, dense foliar canopy. Disease and quality values were subjected to analysis of variance and means were statistically separated using the Scott-Knott cluster analysis procedure.

Puccinia recondita = test: Cereal field trial on soft red winter wheat (leaf rust); format: in vivo; details: wheat cultivar Sisson
Method: A field trial of Compound 4 was conducted on soft red winter wheat cultivar Sisson. Very dry weather gave rise to a low natural incidence of leaf rust (Puccinia recondita: PUCCRT) late in the trial. Compound 4 was applied as a 9.5% active ingredient (weight/weight) emulsifiable concentrate of the following formula (each weight/weight): 9.5% Compound 4, 9.5% m-Pyrol, 65% Surfadone LP-100, 6% Surfadone LP-300, 5% Toximul 3463F, and 5% Toximul 3464F. Rates of Compound 4 application were as follows (grams active ingredient per hectare: g a.i./ha): 140, 280 and 421.

[1] = fungal growth on agar, 20° C., 3-5 days, C.V. class in parentheses

Row | SMILES | IC50 S. tritici (Septoria tritici) | IC50 (Phytophthora infestans) | IC50 S. tritici (Septoria tritici; [1]) | IC50 S. nodorum (Stagonospora nodorum; [1]) | IC50 B. cinerea (Botrytis cinerea; [1]) | other results
1 | C[Si](C)(C)c1onc(-c2c(Cl)cccc2Cl)c1C(O)c1cccnc1 (stereo not shown) [Compound 1, 3-(2,6-Dichlorophenyl)-4-[(3-pyridyl)hydroxymethyl]-5-trimethylsilylisoxazole] | C (b) | > 100 µM | – | – | – | IC50 (Stagonospora nodorum): > 100 µM; IC50 (Botrytis cinerea; Botrytis cinerea, read-out: IC50 B. cinerea): > 100 µM
2 | C[Si](C)(C)c1onc(-c2ccc(Cl)cc2Cl)c1C(O)c1cccnc1 (stereo not shown) [Compound 3, 3-(2,4-Dichlorophenyl)-4-[(3-pyridyl)hydroxymethyl]-5-trimethylsilylisoxazole] | A (b) | > 100 µM | – | – | – | IC50 S. nodorum (Stagonospora nodorum): B (d); IC50 B. cinerea (Botrytis cinerea): B (b)
3 | OC(c1cccnc1)c1c(-c2ccc(Cl)cc2Cl)noc1-c1cccc(Cl)c1 (stereo not shown) [Compound 4, 5-(3-Chlorophenyl)-3-(2,4-dichlorophenyl)-4-[(3-pyridyl)hydroxymethyl]-isoxazole] | – | > 100 µM | A (c) | A (b) | B (d) | Dollar spot disease control (Horsfall-Barratt disease severity) (Sclerotinia homoeocarpa; creeping bentgrass v. Penncross, Compound 4 as 25% wetable powder at 2.2, 4.4, 8.8 g a.i./1000 sq ft, mean disease <3.0% acceptable): effective control on dollar spot during most of the trial period; Turfgrass quality (0-9 scale) (Sclerotinia homoeocarpa; creeping bentgrass, ratings >6.0 acceptable): Highest quality ratings; Control of leaf rust incidence (Puccinia recondita; 9.5% emulsifiable concentrate, 140, 280 and 421 g a.i./ha, low natural incidence): good control of the rust incidence; Yield enhancement (Puccinia recondita; highest rate of Compound 4): Yield enhancement was observed
4 | CC(C)(C)c1onc(-c2ccc(Cl)cc2Cl)c1C(O)c1cccnc1 (stereo not shown) [Compound 7, 3-(2,4-Dichlorophenyl)-5-(1,1-dimethylethyl)-4-[(3-pyridyl)hydroxymethyl]-isoxazole] | – | > 100 µM | – | – | B (c) | IC50 (Septoria tritici; Zymoseptoria tritici, fungal growth on agar, 20° C., 3-5 days, C.V. class in parentheses, read-out: IC50 S. tritici): > 100 µM; IC50 (Stagonospora nodorum; [1]): > 100 µM
5 | OC(c1cccnc1)c1c(-c2ccc(Cl)cc2Cl)noc1-c1cccs1 (stereo not shown) [Compound 12, 3-(2,4-Dichlorophenyl)-4-[(3-pyridyl)hydroxymethyl]-5-(2-thienyl)isoxazole] | – | > 100 µM | A (b) | B (d) | B (c) | –
6 | OC(c1cccnc1)c1c(-c2ccc(Cl)cc2Cl)noc1-c1ccsc1 (stereo not shown) [Compound 13, 3-(2,4-Dichlorophenyl)-4-[(3-pyridyl)hydroxymethyl]-5-(3-thienyl)isoxazole] | – | > 100 µM | A (b) | B (d) | B (b) | –
